Test results published in the NIST ThermoML archive (doi:10.1016/j.jct.2013.01.033).
Numbers after ± are expanded uncertainties.

Legend:
[1] = 101.33 kPa, Liquid, Vibrating tube method
[2] = refractive index (Na D-line) (dimensionless); conditions: 293.15 K; 101.33 kPa; Liquid; Standard Abbe refractometry

mass density ([1]; 298.15 K) [kg/m3] | mass density ([1]; 308.15 K) [kg/m3] | mass density ([1]; 318.15 K) [kg/m3] | mass density ([1]; 328.15 K) [kg/m3] | mass density ([1]; 338.15 K) [kg/m3] | mass density ([1]; 348.15 K) [kg/m3] | refractive index [2] | Compound
1006.71 ± 0.85 | 1000.55 ± 0.84 | 994.44 ± 0.83 | 988.41 ± 0.82 | 982.44 ± 0.82 | 976.52 ± 0.81 |  | CCCC[N+]1(C)CCCC1.N#CC(=C=[N-])C#N [1-butyl-1-methylpyrrolidinium tricyanomethanide]
 |  |  |  |  |  | 1.38432 ± 0.0007 | CCCO [propan-1-ol]
